Laboratory results: patent US11040981B2, “Pyrrolotriazine compounds and methods of inhibiting TAM kinases” (Syros Pharmaceuticals, Inc., priority 2017, dated 2021)

Experiments:
[1] = molecular target: T1, FLT3 (Homo sapiens, UniProt P36888); assay: TR-FRET kinase activity assay, FLT3; format: biochemical; conditions: ATP at Km, 60 minutes
T1 sequence (P36888 27-993): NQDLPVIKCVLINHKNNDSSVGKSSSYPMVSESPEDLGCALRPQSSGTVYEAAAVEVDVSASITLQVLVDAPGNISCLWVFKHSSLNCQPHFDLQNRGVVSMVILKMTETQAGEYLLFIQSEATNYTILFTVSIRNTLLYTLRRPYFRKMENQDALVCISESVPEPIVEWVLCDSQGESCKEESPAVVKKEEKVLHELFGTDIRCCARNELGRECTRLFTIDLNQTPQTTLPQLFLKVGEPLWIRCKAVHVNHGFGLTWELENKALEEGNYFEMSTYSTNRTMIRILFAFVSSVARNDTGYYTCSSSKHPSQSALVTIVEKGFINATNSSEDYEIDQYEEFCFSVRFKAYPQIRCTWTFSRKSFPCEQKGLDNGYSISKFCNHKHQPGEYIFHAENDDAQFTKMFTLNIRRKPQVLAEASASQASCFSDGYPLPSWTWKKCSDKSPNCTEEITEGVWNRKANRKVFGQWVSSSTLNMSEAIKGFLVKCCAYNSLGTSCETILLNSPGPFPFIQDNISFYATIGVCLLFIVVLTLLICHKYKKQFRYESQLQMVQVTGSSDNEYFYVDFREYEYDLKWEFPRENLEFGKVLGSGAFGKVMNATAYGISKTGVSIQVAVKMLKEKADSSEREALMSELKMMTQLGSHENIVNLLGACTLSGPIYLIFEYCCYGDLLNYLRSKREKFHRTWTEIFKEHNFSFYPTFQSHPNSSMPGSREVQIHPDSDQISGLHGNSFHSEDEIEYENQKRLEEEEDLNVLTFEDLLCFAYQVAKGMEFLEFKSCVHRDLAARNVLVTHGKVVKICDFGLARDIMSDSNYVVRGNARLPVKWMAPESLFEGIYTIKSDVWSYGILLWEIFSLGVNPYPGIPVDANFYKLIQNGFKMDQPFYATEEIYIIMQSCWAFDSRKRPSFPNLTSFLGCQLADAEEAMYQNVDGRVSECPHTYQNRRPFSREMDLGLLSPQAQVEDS
Method in brief: (§1)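 Enzyme, fluorescent peptide substrate and compound were mixed, and the reaction was started with ATP at each kinase's Km, in 50 mM HEPES pH 7.5, 10 mM MgCl2, 1 mM EGTA, 0.01% Brij 35, 1 mM DTT at RT. After 60 minutes EDTA quench, Eu-labelled phospho-specific antibody was added for 30 minutes, and IC50 was derived from TR-FRET signal loss.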

[2] = molecular target: T2, TYRO3 (Homo sapiens, UniProt Q06418); assay: TR-FRET kinase activity assay, TYRO3; format: biochemical; conditions: ATP at Km, 60 minutes
T2 sequence (Q06418 41-890): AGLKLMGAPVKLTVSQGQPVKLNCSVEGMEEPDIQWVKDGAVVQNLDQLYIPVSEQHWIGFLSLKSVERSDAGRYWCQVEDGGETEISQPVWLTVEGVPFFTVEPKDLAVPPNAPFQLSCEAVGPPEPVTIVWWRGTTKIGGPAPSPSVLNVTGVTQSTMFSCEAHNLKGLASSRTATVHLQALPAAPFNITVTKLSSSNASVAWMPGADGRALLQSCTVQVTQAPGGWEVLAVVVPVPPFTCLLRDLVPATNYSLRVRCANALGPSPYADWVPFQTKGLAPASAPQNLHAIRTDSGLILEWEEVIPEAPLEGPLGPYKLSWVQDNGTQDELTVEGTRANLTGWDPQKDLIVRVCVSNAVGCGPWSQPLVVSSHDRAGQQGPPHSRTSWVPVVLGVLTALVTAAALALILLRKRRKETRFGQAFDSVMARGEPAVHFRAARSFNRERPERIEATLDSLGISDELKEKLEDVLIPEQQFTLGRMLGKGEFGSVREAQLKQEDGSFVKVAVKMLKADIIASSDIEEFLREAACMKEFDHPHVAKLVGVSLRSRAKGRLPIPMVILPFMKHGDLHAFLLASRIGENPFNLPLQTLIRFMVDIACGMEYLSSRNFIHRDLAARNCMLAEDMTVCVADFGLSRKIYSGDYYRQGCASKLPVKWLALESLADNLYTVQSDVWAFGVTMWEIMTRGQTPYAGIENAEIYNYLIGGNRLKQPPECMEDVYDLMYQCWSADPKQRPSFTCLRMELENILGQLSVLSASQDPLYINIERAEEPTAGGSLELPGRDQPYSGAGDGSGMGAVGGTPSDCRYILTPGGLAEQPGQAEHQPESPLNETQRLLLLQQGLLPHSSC
Method in brief: as §1

SMILES | IC50 [1] | IC50 [2]
C[C@@H](CC(F)(F)F)Nc1ncc2c(C3=CCNCC3)cc([C@H]3CC[C@H](O)CC3)n2n1 [Compound 442] | ≤ 100 nM | ≤ 100 nM
COC[C@H](C)Nc1ncc2c(-c3cnn(C4COC4)c3)cc(-c3ccc(O)nc3)n2n1 [Compound 501] | 1000 to 10000 nM | ≤ 100 nM
COC[C@H](C)Nc1ncc2c(-c3ccnc(N4CCN(S(=O)(=O)C(F)(F)F)CC4)c3)cc([C@H]3CC[C@H](O)CC3)n2n1 [Compound 487] | 1000 to 10000 nM | ≤ 100 nM
COC[C@H](C)Nc1ncc2c(-c3ccnc(N4CCN(C(=O)OC5COC5)CC4)c3)cc([C@H]3CC[C@H](O)CC3)n2n1 [Compound 504] | 100 to 1000 nM | ≤ 100 nM
COC[C@H](C)Nc1ncc2c([C@H]3CC[C@@H](C(=O)N4CCOCC4)CC3)cc([C@H]3CC[C@H](O)CC3)n2n1 [Compound 484] | 1000 to 10000 nM | ≤ 100 nM
COC[C@H](C)Nc1ncc2c(C3=C[C@H]4CC[C@@H](C3)N4C(=O)N3CCOCC3)cc([C@H]3CC[C@H](O)CC3)n2n1 [Compound 469] | 100 to 1000 nM | ≤ 100 nM
COC[C@H](C)Nc1ncc2c(-c3ccnc(NC4CCOCC4)c3)cc([C@H]3CC[C@H](O)CC3)n2n1 [Compound 431] | 100 to 1000 nM | ≤ 100 nM
COC[C@H](C)Nc1ncc2c(-c3ccnc(N4C[C@H]5CC[C@@H](C4)O5)c3)cc([C@H]3CC[C@H](O)CC3)n2n1 [Compound 445] | 100 to 1000 nM | ≤ 100 nM
C[C@@H](CC(F)(F)F)Nc1ncc2c(C3=C[C@@H]4CC[C@H](C3)N4)cc([C@H]3CC[C@H](O)CC3)n2n1 [Compound 499] | 100 to 1000 nM | ≤ 100 nM
COC[C@H](C)Nc1ncc2c(C3=C[C@@H]4CC[C@H](C3)N4)cc([C@H]3CC[C@H](O)CC3)n2n1 [Compound 461] | 1000 to 10000 nM | ≤ 100 nM
COC[C@H](C)Nc1ncc2c(C3=C[C@@H]4CC[C@H](C3)N4C(=O)N3CCOCC3)cc([C@H]3CC[C@H](O)CC3)n2n1 [Compound 463] | 100 to 1000 nM | ≤ 100 nM
COC[C@H](C)Nc1ncc2c(C3=C[C@@H]4CC[C@H](C3)N4C(C)=O)cc([C@H]3CC[C@H](O)CC3)n2n1 [Compound 462] | 100 to 1000 nM | ≤ 100 nM
COC[C@H](C)Nc1ncc2c(-c3ccnc(N4CCC5(CC4)COC5)c3)cc([C@H]3CC[C@H](O)CC3)n2n1 [Compound 427] | 100 to 1000 nM | ≤ 100 nM
COC[C@H](C)Nc1ncc2c(-c3cnn(C4COC4)c3)cc([C@H]3CC[C@@](C)(O)CC3)n2n1 (single isomer, unassigned) [Compound 453] | 100 to 1000 nM | ≤ 100 nM
C[C@@H](CC(F)(F)F)Nc1ncc2c([C@H]3CC[C@@H](C(=O)N4CCOCC4)CC3)cc([C@H]3CC[C@H](O)CC3)n2n1 [Compound 446] | ≤ 100 nM | ≤ 100 nM
CC[C@H](C)Nc1ncc2c(-c3ccc(CN4CCN(C)CC4)cc3)cc(C3CCC(C)(O)CC3)n2n1 (stereo in doubt) [Compound 131, (cis)-4-(2-((S)-sec-butylamino)-5-(4-((4-methylpiperazin-1-yl)methyl)phenyl)pyrrolo[2,1-f][1,2,4]triazin-7-yl)-1-methylcyclohexanol] | ≤ 100 nM | ≤ 100 nM
COC[C@H](C)Nc1ncc2c(-c3cnn(C(C)(C)CN4CCOCC4)c3)cc([C@H]3CC[C@H](O)CC3)n2n1 [Compound 459] | 1000 to 10000 nM | ≤ 100 nM
COC[C@H](C)Nc1ncc2c(-c3cnn(C4COC4)c3)cc(-c3ccc(OC)cc3)n2n1 [Compound 502] | 1000 to 10000 nM | ≤ 100 nM
COC[C@H](C)Nc1ncc2c(-c3cnn(C(C)(C)C(=O)N4Cc5nc(C)sc5C4)c3)cc([C@H]3CC[C@H](O)CC3)n2n1 [Compound 495] | 1000 to 10000 nM | ≤ 100 nM
COC[C@H](C)Nc1ncc2c(-c3ccnc(N4CCN(S(=O)(=O)C5CC5)CC4)c3)cc([C@H]3CC[C@H](O)CC3)n2n1 [Compound 491] | 100 to 1000 nM | ≤ 100 nM
CC[C@H](C)Nc1ncc2c(C3=CCNCC3)cc([C@H]3CC[C@H](O)CC3)n2n1 [Compound 130] | ≤ 100 nM | ≤ 100 nM
CC(CC1COC1)Nc1ncc2c(-c3cnn(C4COC4)c3)cc([C@H]3CC[C@H](O)CC3)n2n1 (mixture of isomers) [Compound 447] | 1000 to 10000 nM | 1000 to 10000 nM
COC[C@H](C)Nc1ncc2c(C3=C[C@@H]4CC[C@H](C3)N4CC(F)(F)F)cc([C@H]3CC[C@H](O)CC3)n2n1 [Compound 485] | 100 to 1000 nM | ≤ 100 nM

Next, values leading:

IC50 [1] | IC50 [2] | SMILES
1000 to 10000 nM | ≤ 100 nM | COC[C@H](C)Nc1ncc2c(-c3cnn(C(C)(C)c4nnc(C)o4)c3)cc([C@H]3CC[C@H](O)CC3)n2n1 [Compound 440]
≤ 100 nM | ≤ 100 nM | CC[C@H](C)Nc1ncc2c(-c3ccc(CN4CCN(C)CC4)cc3)cc([C@H]3CC[C@](C)(O)CC3)n2n1 (relative stereo) [Compound 132, (trans)-4-(2-((S)-sec-butylamino)-5-(4-((4-methylpiperazin-1-yl)methyl)phenyl)pyrrolo[2,1-f][1,2,4]triazin-7-yl)-1-methylcyclohexanol]
100 to 1000 nM | ≤ 100 nM | COC[C@H](C)Nc1ncc2c(-c3cnn(C[C@@H]4CC(=O)N(C)C4)c3)cc([C@H]3CC[C@H](O)CC3)n2n1 [Compound 473]
1000 to 10000 nM | ≤ 100 nM | COC[C@H](C)Nc1ncc2c(-c3ccnc(N4CCN(C5COC5)CC4)c3)cc([C@H]3CC[C@H](O)CC3)n2n1 [Compound 486]
1000 to 10000 nM | ≤ 100 nM | COC[C@H](C)Nc1ncc2c(-c3ccc(-c4nn[nH]n4)cc3)cc([C@H]3CC[C@H](O)CC3)n2n1 [Compound 134]
100 to 1000 nM | ≤ 100 nM | C[C@@H](COC(F)F)Nc1ncc2c(-c3cnn(CCS(C)(=O)=O)c3)cc([C@H]3CC[C@H](O)CC3)n2n1 [Compound 436]
1000 to 10000 nM | ≤ 100 nM | COC[C@H](C)Nc1ncc2c(-c3cnn(C(C)(C)C(=O)C4CCc5sc(C)nc5C4)c3)cc([C@H]3CC[C@H](O)CC3)n2n1 (stereo partly drawn) [Compound 496]
100 to 1000 nM | ≤ 100 nM | COC[C@H](C)Nc1ncc2c(-c3csc(C(=O)N4CCOCC4)c3)cc([C@H]3CC[C@H](O)CC3)n2n1 [Compound 444]
100 to 1000 nM | ≤ 100 nM | COC[C@H](C)Nc1ncc2c(-c3cnn(C(C)(C)C(=O)N4CCC(C)(C#N)CC4)c3)cc([C@H]3CC[C@H](O)CC3)n2n1 [Compound 451]
1000 to 10000 nM | 100 to 1000 nM | CCC1(Nc2ncc3c(-c4ccc(CN5CCN(C)CC5)cc4)cc([C@H]4CC[C@H](O)CC4)n3n2)CCC1 [Compound 126]
1000 to 10000 nM | ≤ 100 nM | COC[C@H](C)Nc1ncc2c(-c3cnn(C[C@@H]4CCO4)c3)cc([C@H]3CC[C@H](O)CC3)n2n1 [Compound 478]
100 to 1000 nM | ≤ 100 nM | COC[C@H](C)Nc1ncc2c(-c3cnn(CC(C)(C)N4CCOCC4)c3)cc([C@H]3CC[C@H](O)CC3)n2n1 [Compound 507]
100 to 1000 nM | ≤ 100 nM | COC[C@H](C)Nc1ncc2c(-c3cccc(N4C[C@H]5COC[C@H]5C4)c3)cc([C@H]3CC[C@H](O)CC3)n2n1 [Compound 464]
